Values joined by “and” are separate entries in the source; they are usually repeats but may differ in a detail not shown here. Identical values can stand only once.
Key:
eIF2B = biological target: T1, eIF2B (Homo sapiens, UniProt P49770+Q14232+Q9UI10); test: eIF2B GEF activity assay, targeted, recombinant wild-type eIF2B; assay type: biochemical; settings: 500 nM ISRIB, 200 μM F6P, 200 μM G1P
T1 construct: made in house; host or cells: eIF2Bα: E. coli BL21(DE3)
Description: Bodipy-FL-GDP-loaded eIF2 was used as a substrate for recombinant eIF2B. The assay was performed in 384-well plates. Reactions were read on a SpectraMax i3x plate reader (Molecular Devices) using the instrument’s Softmax Pro software with the following parameters: plate temperature = 25 °C; excitation wavelength = 485 nm (15 nm width); emission wavelength = 535 nm (25 nm width); read duration = 30 min at 45 s intervals. Data were analyzed in Prism. GDP release half-lives were calculated by fitting single-exponential decay curves.
For unbiased screening, MIDAS metabolite libraries at 10 mM stock concentration were dispensed into wells of the assay plate using an Echo Acoustic Liquid Handler (Labcyte). In a final assay volume of 10 μL/well, the following conditions were kept constant: 25 nM Bodipy-FL-GDP-loaded eIF2, 4 nM phospho-eIF2, 0.1 mM GDP, 1 mg/mL BSA, 1 nM eIF2B, 10 μM metabolite. A single well was run for each metabolite. For targeted experiments with recombinant wild-type and mutant eIF2Bα, the following conditions were used: 50 nM Bodipy-FL-GDP-loaded eIF2, 0.1 mM GDP, 1 mg/ml BSA, 20 nM eIF2B. For targeted experiments with HEK293T lysates, the following conditions were used: 50 nM Bodipy-FL-GDP-loaded eIF2, 0.1 mM GDP, 1 mg/ml BSA, 0.1 or 0.3 mg/ml lysates.

eIF2Bα [1] = biological target: T2, eIF2Bα (Homo sapiens, UniProt Q14232); test: Differential scanning fluorimetry (Protein Thermal Shift), eIF2Bα Tm; assay type: binding; settings: individual replicates Rep 1-4, control without metabolite about 64.1
T2 construct: made in house; host or cells: E. coli BL21(DE3)
T2 sequence (Q14232 1-305): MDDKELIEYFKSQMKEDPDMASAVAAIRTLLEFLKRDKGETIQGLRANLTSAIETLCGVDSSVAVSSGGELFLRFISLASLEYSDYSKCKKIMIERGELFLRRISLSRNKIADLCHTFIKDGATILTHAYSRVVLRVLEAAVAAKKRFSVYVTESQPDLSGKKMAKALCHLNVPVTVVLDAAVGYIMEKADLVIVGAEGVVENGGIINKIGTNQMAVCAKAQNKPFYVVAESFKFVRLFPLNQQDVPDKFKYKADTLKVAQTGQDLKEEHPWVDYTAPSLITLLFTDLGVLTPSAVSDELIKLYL
Description: The effect of metabolite binding on eIF2Bα Tm was assessed using the Protein Thermal Shift assay (Thermo Fisher), following manufacturer’s instructions. Briefly, reaction conditions for each 20 μL reaction were: 1.1 μg (1.5 μM) of eIF2Bα, 5 μl Thermal Shift buffer, 1X Thermal Shift dye, and metabolites in dose response. Reactions were run in 384-well format on a QuantStudio 6 Flex instrument (Thermo Fisher). The resulting melt curves were analyzed using Protein Thermal Shift Software, and eIF2Bα Tms for each condition were calculated by fitting to the Boltzmann function.

eIF2Bα [2] = biological target: T2, eIF2Bα; test: Isothermal titration calorimetry, wild-type eIF2Bα; assay type: binding; settings: ITC, wild-type eIF2Bα
Description: Interactions between recombinant protein and sugar phosphates were conducted with a MicroCal PEAQ-ITC (Malvern Panalytical Inc.). Experiments were performed in 25 mM HEPES, 150 mM NaCl, pH 7.5 at 20 °C. The sugar phosphate concentration in the syringe was 1 mM or 1.5 mM, and ~3.5 μL aliquots were injected into cells containing 300 μL eIF2Bα or eIF2B(βδγε) at a concentration of 20–30 μM. The final titration curves were fitted using MicroCal ITC data analysis software, assuming a single binding site per monomer.

[3] = biological target: T3, eIF2B decamer in WT HEK293T lysate (Homo sapiens, UniProt P49770+Q14232+Q9UI10); test: Sucrose gradient centrifugation, eIF2B complex assembly, WT HEK293T lysate; assay type: biochemical; settings: 400 mM KCl, 5–20% sucrose gradient
T3 construct: endogenous in cells; host or cells: HEK293T (wild type) lysate
Description: WT or eIF2Bα mutant HEK293T cells were harvested and lysed in 50 mM HEPES, 400 mM KCl, 1 mM DTT, 4 mM Mg(OAc)2, pH 7.5 + 0.5% Triton-X-100 + EDTA-free protease inhibitor cocktail (Roche) on ice for 30 min. Lysates were cleared by centrifugation at 48,000 × g, 4 °C for 30 min. 100 μL of each cleared lysate was loaded onto a 5–20% sucrose gradient prepared in a 13 × 51 mm ultracentrifuge tube using a Gradient Station (Biocomp) and centrifuged in a SW55 Ti rotor at 152,000 × g, 4 °C for 12 h. After centrifugation, 24 × 200 μL fractions were manually collected from the top to bottom of each gradient. Each fraction was subjected to methanol/chloroform precipitation and SDS-PAGE followed by Western Blot with the indicated antibodies. Blots were imaged on a ChemiDoc MP (Bio-Rad), and band intensities were quantified using the instrument’s Image Lab software. Each value was then divided by total intensity obtained across all fractions to determine percent enrichment of each subunit in each fraction.

T1 sequence (P49770 whole entry, one chain of several): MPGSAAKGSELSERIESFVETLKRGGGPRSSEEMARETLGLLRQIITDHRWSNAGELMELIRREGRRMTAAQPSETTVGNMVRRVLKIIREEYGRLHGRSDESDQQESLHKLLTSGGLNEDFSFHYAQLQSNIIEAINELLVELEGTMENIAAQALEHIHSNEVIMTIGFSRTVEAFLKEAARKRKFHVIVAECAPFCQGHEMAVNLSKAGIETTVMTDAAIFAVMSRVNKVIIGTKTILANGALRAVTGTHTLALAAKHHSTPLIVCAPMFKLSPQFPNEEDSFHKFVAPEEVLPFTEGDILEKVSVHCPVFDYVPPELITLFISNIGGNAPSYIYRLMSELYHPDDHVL
T1 sequence (Q9UI10 whole entry, one chain of several): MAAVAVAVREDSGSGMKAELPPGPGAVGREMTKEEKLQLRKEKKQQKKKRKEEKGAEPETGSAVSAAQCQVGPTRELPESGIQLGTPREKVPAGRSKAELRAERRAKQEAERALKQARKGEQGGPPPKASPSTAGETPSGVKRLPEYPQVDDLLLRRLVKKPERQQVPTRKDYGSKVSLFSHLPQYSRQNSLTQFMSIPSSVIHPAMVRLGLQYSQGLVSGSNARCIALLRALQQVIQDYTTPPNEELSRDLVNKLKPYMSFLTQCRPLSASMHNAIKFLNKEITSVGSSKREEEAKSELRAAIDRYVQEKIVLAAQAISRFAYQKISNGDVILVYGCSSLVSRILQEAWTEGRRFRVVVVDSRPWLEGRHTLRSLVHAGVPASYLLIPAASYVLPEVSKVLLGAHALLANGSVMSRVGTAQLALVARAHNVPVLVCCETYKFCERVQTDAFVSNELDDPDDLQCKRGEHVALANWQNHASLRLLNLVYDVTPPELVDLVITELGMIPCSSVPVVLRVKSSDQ
T1 sequence (Q9NR50 whole entry partner, one chain of several): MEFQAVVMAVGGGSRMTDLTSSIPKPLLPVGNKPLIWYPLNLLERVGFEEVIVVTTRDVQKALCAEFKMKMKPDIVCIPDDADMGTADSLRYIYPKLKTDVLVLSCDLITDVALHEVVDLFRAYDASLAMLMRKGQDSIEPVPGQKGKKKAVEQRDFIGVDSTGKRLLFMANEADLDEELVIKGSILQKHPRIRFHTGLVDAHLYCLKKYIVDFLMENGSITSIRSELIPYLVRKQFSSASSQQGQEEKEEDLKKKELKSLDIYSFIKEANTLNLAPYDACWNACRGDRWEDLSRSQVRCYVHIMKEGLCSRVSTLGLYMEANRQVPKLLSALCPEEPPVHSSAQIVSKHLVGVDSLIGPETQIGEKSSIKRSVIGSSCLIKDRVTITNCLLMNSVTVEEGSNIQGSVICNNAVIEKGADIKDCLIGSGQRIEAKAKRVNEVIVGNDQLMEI
T1 sequence (Q13144 whole entry partner, one chain of several): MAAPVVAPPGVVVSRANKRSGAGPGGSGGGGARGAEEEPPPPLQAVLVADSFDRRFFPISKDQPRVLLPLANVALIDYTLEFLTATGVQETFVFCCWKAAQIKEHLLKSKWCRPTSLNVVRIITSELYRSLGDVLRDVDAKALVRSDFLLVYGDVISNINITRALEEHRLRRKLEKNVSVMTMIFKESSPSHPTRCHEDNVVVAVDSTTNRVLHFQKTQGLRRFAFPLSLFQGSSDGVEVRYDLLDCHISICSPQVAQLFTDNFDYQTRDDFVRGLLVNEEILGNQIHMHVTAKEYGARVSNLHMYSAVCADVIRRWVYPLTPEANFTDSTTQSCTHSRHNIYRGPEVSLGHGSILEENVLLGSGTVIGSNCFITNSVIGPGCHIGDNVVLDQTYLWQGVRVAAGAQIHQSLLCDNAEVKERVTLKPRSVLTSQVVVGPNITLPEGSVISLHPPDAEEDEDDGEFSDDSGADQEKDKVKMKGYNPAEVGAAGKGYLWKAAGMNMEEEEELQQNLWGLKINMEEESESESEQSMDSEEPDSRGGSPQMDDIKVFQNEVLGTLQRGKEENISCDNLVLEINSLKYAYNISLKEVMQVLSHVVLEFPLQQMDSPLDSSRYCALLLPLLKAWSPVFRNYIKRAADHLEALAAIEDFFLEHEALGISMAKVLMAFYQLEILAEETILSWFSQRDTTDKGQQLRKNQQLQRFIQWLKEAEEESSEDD
T3 sequence (P49770 whole entry, one chain of several): as the sequence (P49770 whole entry, one chain of several) above
T3 sequence (Q9UI10 whole entry, one chain of several): as the sequence (Q9UI10 whole entry, one chain of several) above
T3 sequence (Q9NR50 whole entry partner, one chain of several): as the sequence (Q9NR50 whole entry partner, one chain of several) above
T3 sequence (Q13144 whole entry partner, one chain of several): as the sequence (Q13144 whole entry partner, one chain of several) above

SMILES: O=P(O)(O)O[C@H]1O[C@H](CO)[C@@H](O)[C@H](O)[C@H]1O [G1P, glucose-1-phosphate]
- effect on GEF activity of recombinant wild-type eIF2B (eIF2B): an inactive metabolite in the enzymatic assay
- Tm of eIF2Bα (eIF2Bα [1]; 0.33 mM metabolite): 64.9734 °C and 64.7812 °C and 64.8751 °C and 63.7923 °C
- Tm of eIF2Bα (eIF2Bα [1]; 1 mM metabolite): 65.6948 °C and 65.7116 °C and 65.1967 °C and 64.0445 °C
- Tm of eIF2Bα (eIF2Bα [1]; 3.3 mM metabolite): 65.6535 °C and 64.9673 °C and 65.2055 °C and 64.2208 °C
- Tm of eIF2Bα (eIF2Bα [1]; 10 mM metabolite): 65.8625 °C and 65.8106 °C and 65.498 °C and 64.4559 °C
- interaction with eIF2Bα (eIF2Bα [2]): did not interact
- eIF2B decamer formation (migration of eIF2Bα and eIF2Bδ) [3]: did not affect the migration of eIF2B subunits
